Activity calls are given as the source filed them. No cut-off for these calls is given here.
Key:
[1] = AUC (0 to 24 hrs) in female Sprague-Dawley rat at 2 mg/kg, iv measured up to 24 hrs by LC/MS-MS analysis; assay type: ADME, organism-based; design: time < 24 hr, dose 2 mg/kg, route intravenous; conditions: in vivo
[2] = MRT in female Sprague-Dawley rat at 2 mg/kg, iv measured up to 24 hrs by LC/MS-MS analysis; assay type: ADME, organism-based; conditions: in vivo
[3] = system: U-87 MG; assay: Antiproliferative activity against human U87MG cells assessed as inhibition of cell growth incubated for 48 hrs by MTT assay; assay type: functional, cell-based, U-87MG ATCC
[4] = system: A549; assay: In vivo inhibition of PI3K/Akt/mTOR in human A549 cells xenografted in athymic nude mouse assessed as decrease in phosphorylation of 4EBP1 at 25 to 50 mg/kg, ip administered once daily for 21 days by immunocytochemistry; assay type: functional, organism-based
[5] = Half life in female Sprague-Dawley rat at 2 mg/kg, iv measured up to 24 hrs by LC/MS-MS analysis; assay type: ADME, organism-based; conditions: in vivo
[6] = system: A549; assay: Induction of mitochondrial membrane potential loss in human A549 cells at 1 to 5 uM incubated for 48 hrs by JC-1 staining based flow cytometer analysis; assay type: functional, cell-based
[7] = system: A549; assay: Induction of autophagy in human A549 cells assessed as change in ULK1 expression at 1 to 5 uM incubated for 48 hrs by Western blot analysis; assay type: functional, cell-based
[8] = system: A549; assay: Induction of autophagy in human A549 cells infected with Ad-mCherry-GFP-LC3B assessed as LC3 aggregate formation at 2.5 uM incubated for 48 hrs by fluorescence microscopy; assay type: functional, cell-based
[9] = Subacute toxicity in SPF Kunming mouse assessed as heart morphological changes at 2000 mg/kg, po administered once a day for 14 days by H and E staining based microscopic analysis; assay type: organism-based; conditions: in vivo, 336 h
[10] = Inhibition of PI3K/Akt/mTOR signalling pathway in human A549 cells assessed as reduction in Akt phosphorylation at 1 to 5 uM incubated for 48 hrs by Western blot analysis; assay type: cell-based
[11] = Oral bioavailability in female Sprague-Dawley rat at 10 mg/kg measured up to 24 hrs by LC/MS-MS analysis; assay type: ADME, organism-based; conditions: in vivo
[12] = Half life in male Sprague-Dawley rat at 10 mg/kg, po measured up to 24 hrs by LC/MS-MS analysis; assay type: ADME, organism-based; conditions: in vivo
[13] = Toxicity in athymic nude mouse xenografted with human A549 cells assessed as effect on liver morphological changes at 25 to 50 mg/kg, ip administered once daily for 21 days by H and E staining based assay; assay type: organism-based; conditions: in vivo, 504 h
[14] = system: A549; assay: Induction of apoptosis in human A549 cells at 2.5 uM incubated for 48 hrs in presence of pan caspase inhibitor, Z-VAD-FMK by annexin-V and propidium iodide staining based flow cytometric analysis; assay type: functional, cell-based
[15] = Cmax in male Sprague-Dawley rat at 2 mg/kg, iv measured up to 24 hrs by LC/MS-MS analysis; assay type: ADME, organism-based; design: dose 2 mg/kg, route intravenous; conditions: in vivo
[16] = Acute toxicity in SPF Kunming mouse assessed as mortality at 500 to 2000 mg/kg, po administered as single dose measured for 14 days; assay type: organism-based; conditions: in vivo, 336 h
[17] = Half life in female Sprague-Dawley rat at 10 mg/kg, po measured up to 24 hrs by LC/MS-MS analysis; assay type: ADME, organism-based; conditions: in vivo
[18] = system: A549; assay: Inhibition of eIF4E/eIF4G interaction in human A549 cells incubated for 48 hrs by m7GTP pull down assay; assay type: cell-based
[19] = system: A549; assay: Induction of apoptosis in human A549 cells assessed as decrease in Bcl2 level at 1 to 5 uM incubated for 48 hrs by Western blot analysis; assay type: functional, cell-based
[20] = system: A549; assay: Induction of apoptosis in human A549 cells assessed as nuclear shrinkage and chromatin condensation at 1 to 5 uM incubated for 48 hrs by Hoechst 33258 staining based fluorescence microscopy; assay type: functional, cell-based
[21] = system: A549; assay: Inhibition of colony formation in human A549 cells incubated for 10 days by crystal violet staining based assay; assay type: functional, cell-based
[22] = Acute toxicity in SPF Kunming mouse assessed as body weight at 1000 mg/kg, po administered as single dose measured at day 14 (reference value: 34.7g); assay type: organism-based; conditions: in vivo
[23] = system: A549; assay: Induction of apoptosis in human A549 cells assessed as increase in Bax level at 1 to 5 uM incubated for 48 hrs by Western blot analysis; assay type: functional, cell-based
[24] = system: A549; assay: In vivo inhibition of eIF4E in human A549 cells xenografted in athymic nude mouse assessed as decrease in phosphorylation of eIF4E at 25 to 50 mg/kg, ip administered once daily for 21 days by Western blot analysis; assay type: functional, organism-based
[25] = system: A549; assay: Induction of apoptosis in human A549 cells assessed as activation of caspase 3 at 1 to 5 uM incubated for 48 hrs by Western blot analysis; assay type: functional, cell-based
[26] = Tmax in male Sprague-Dawley rat at 2 mg/kg, iv measured up to 24 hrs by LC/MS-MS analysis; assay type: ADME, organism-based; conditions: in vivo
[27] = Toxicity in athymic nude mouse xenografted with human A549 cells assessed as effect on kidney morphological changes at 25 to 50 mg/kg, ip administered once daily for 21 days by H and E staining based assay; assay type: organism-based; conditions: in vivo, 504 h
[28] = system: A549; assay: Induction of autophagy in human A549 cells assessed as autophagic bodies formation at 2.5 uM incubated for 48 hrs by transmission electron microscopy; assay type: functional, cell-based
[29] = system: A549; assay: In vivo inhibition of PI3K/Akt/mTOR signalling pathway in human A549 cells xenografted in athymic nude mouse assessed as decrease in phosphorylation of PI3K at 25 to 50 mg/kg, ip administered once daily for 21 days by Western blot analysis; assay type: functional, organism-based
[30] = Inhibition of PI3K/AKT/mTOR in human A549 cells assessed as decrease in 4EBP1 phosphorylation at 1 to 5 uM incubated for 48 hrs by western blot analysis; assay type: cell-based
[31] = Acute toxicity in SPF Kunming mouse assessed as body weight at 500 mg/kg, po administered as single dose measured at day 14 (reference value: 34.7g); assay type: organism-based; conditions: in vivo
[32] = Acute toxicity in SPF Kunming mouse assessed as body weight at 2000 mg/kg, po administered as single dose measured at day 14 (reference value: 34.7g); assay type: organism-based; conditions: in vivo
[33] = Acute toxicity in SPF Kunming mouse assessed as body weight at 2000 mg/kg, po administered as single dose measured at day 7 (reference value: 30.2g); assay type: organism-based; conditions: in vivo
[34] = system: A549; assay: Antitumor activity against human A549 cells xenografted in athymic nude mouse assessed as decrease in tumor growth at 25 mg/kg, ip administered once daily for 21 days; assay type: functional; conditions: 504 h
[35] = Tmax in female Sprague-Dawley rat at 2 mg/kg, iv measured up to 24 hrs by LC/MS-MS analysis; assay type: ADME, organism-based; conditions: in vivo
[36] = AUC (0 to 24 hrs) in male Sprague-Dawley rat at 10 mg/kg, po measured up to 24 hrs by LC/MS-MS analysis; assay type: ADME, organism-based; design: time < 24 hr, dose 10 mg/kg, route oral; conditions: in vivo
[37] = Cmax in female Sprague-Dawley rat at 2 mg/kg, iv measured up to 24 hrs by LC/MS-MS analysis; assay type: ADME, organism-based; design: dose 2 mg/kg, route intravenous; conditions: in vivo
[38] = Subacute toxicity in SPF Kunming mouse assessed as liver morphological changes at 2000 mg/kg, po administered once a day for 14 days by H and E staining based microscopic analysis; assay type: organism-based; conditions: in vivo, 336 h

Compound `Fc1ccc(/C=N/Nc2nc(-c3ccc(C(F)(F)F)cc3)cs2)cc1F` has an AUC(0-t) at 24 h [1] of 133 µM·h, an MRT [2] of 5.09 h and an IC50 [3] of 29.9 µM. For the same compound, the inhibition [4] was “Active”, the half-life [5] was 3.25 h and the Activity [6] was “Active”. For the same compound, the Activity [7] was “Active”, the Activity [8] was “Active” and the Activity [9] was “Non-Toxic”. The inhibition [10] was “Active”, the bioavailability [11] was 31% and the half-life [12] was 1.27 h. For the same compound, the Activity [13] was “Non-Toxic”, the Activity [14] was “inactive” and the Cmax [15] was 149 µM. For the same compound, the Activity [16] was “Non-Toxic”, the half-life [17] was 1.12 h and the inhibition [18] was “Active”. For the same compound, the Activity [19] was “Active”, the Activity [20] was “Active” and the inhibition [21] was “Dose-dependent effect”. The Activity [22] was 34.9 g, the Activity [23] was “Active” and the inhibition [24] was “Active”. The Activity [25] was “Active”, the Tmax [26] was 2 h and the Activity [27] was “Non-Toxic”. The Activity [28] was “Active”, the inhibition [29] was “Active” and the inhibition [30] was “Active”. It also gave an Activity [31] of 33.3 g, an Activity [32] of 35 g and an Activity [33] of 29.9 g. The inhibition in vivo at 25 mg/kg [34] was 62%, the Tmax [35] was 2 h and the AUC(0-t) at 24 h [36] was 5.34 µM·h. The Cmax [37] was 126 µM and the Activity [38] was “Non-Toxic”.

From ChEMBL document CHEMBL4393720, “Design, synthesis and biological evaluation of bromophenol-thiazolylhydrazone hybrids inhibiting the interaction of translation initiation factors eIF4E/eIF4G as multifunctional agents for cancer treatment” (Eur J Med Chem, 2019)
